In publication PMC12636028, “Rate-Tunable, Metal-Mediated Amide Bond Cleavage for the Controlled Release of Pharmaceuticals” (Journal of the American Chemical Society, 2025):
Like-named read-outs stand apart in the source and are kept apart here. One block for each substance: values may come before it.

Columns and labels:
[1] = cleavage assay of cold (natural metal) model tripeptide complexes, monitored by HPLC; type: physicochemical; details: for kobs: Ga complex, pseudo first-order
Description: Following our previous work focused on N, O acyl shift compatible chelate conjugates, we originally sought to accelerate amide bond cleavage by N-methylation, to enhance the peptide’s leaving group character. We initiated the study by synthesis of a model tripeptide sequence which is capped at the N-terminus by the aza-macrocyclic 1,4,7-triazacyclononane-1,4,7-triacetic acid (NOTA) chelator previously identified as compatible with MMAAC. To this end, tripeptides with the sequence NO2A-X-G-W-NH2 (where X represents the variable complex adjacent amino acid) were constructed. Tryptophan (W) was incorporated as a spectroscopic handle for HPLC monitoring due to its characteristic absorbance at 280 nm, while glycine (G) was included as a short spacer amino acid to minimize the steric influence of W on the metal chelate. Subsequently, chelation with Ga^3+ yielded the corresponding model tripeptide metal complex, [Ga(NO2A)]^+-X-G-W-NH2. The Ga^3+ ion was selected as the gold-standard metal ion since it effectively triggered bond cleavage in the Ser model tripeptide in prior studies, but also formed a thermodynamically and kinetically inert, in vivo compatible metal complex. Following successful complexation and purification, the pH and reaction temperature of the metal complex solution were adjusted to pH 7.4 and 80 °C to initiate cleavage at a readily observable rate (Figure A). Reaction progress was monitored and quantified using high-performance liquid chromatography and mass spectrometry (HPLC-MS, Figure B,C). In the absence of a metal ion, all model tripeptides remained intact at all conditions and temperatures tested (Figures S113–S121). […] In the liquid chromatogram, a second peak with a longer retention time, with the same mass as the reactant, was observed. Previously, we hypothesized that this peak correlated to an intramolecular rearrangement prior to the subsequent amide bond cleavage as part of the N, O-acyl shift reaction.
3 Complex synthesis and characterization
3.1 General Complexation Protocol and Cleavage Assay Procedure
A 5 mg aliquot of the compound, 10-25, was dissolved in 500 μL of room-temperature distilled water.
Two equivalents of the natGa3+salt were added to the solution, which was left to react for 1 hour under room temperature. Full complexation was confirmed by LCMS. The complex was then purified via Sep-Pak C18 short cartridge. The concentration was determined by ICP-OES. The complexes were further characterized via HPLC and HR-ESI-MS.
Cleavage of the cold model tripeptide complexes (0.75 mM, determined by ICP-OES) was observed under 80 °C and pH 7.4. Aqueous buffer solutions were prepared using 10 mM NaOAc (pH 4.5), 10 mM […]
The complex was formed in pH 4.5 10 mM NaOAc buffer under room temperature. An aliquot of the complex was placed in an aqueous solution of the desired pH and incubated for 24 hours at 80 °C. The reaction was monitored via analytical HPLC (Method A). […]
natGallium 2,2'-(7-(2-(benzylamino)-2-oxoethyl)-1,4,7-triazonane-1,4-diyl)diacetic acid, Ga(26). […]
The concentration of Ga(NO3)3 was determined by ICP-OES. The pH of the solution was adjusted to pH = 5 by adding 4 equivalents of 1 M KOH solution. […]
natGallium 2,2'-(7-(2-(benzyl(methyl)amino)-2-oxoethyl)-1,4,7-triazonane-1,4-diyl)diacetic acid, [Ga(27)]ClO4. A 15 mg aliquot of compound 27 was dissolved in 500 μL of room temperature distilled […]
water. […]

[2] = type: in vitro ADME; details: mouse, plasma
Description: (§1) The cleavage of the radiolabeled conjugates was monitored
(§2) tube. […] After centrifugation at […]

[3] = type: physicochemical; details: buffer, pH 7.4
Description: as §1, §2

[4] = for half-life of model tripeptide: buffer, pH 7.4; for autolytic release of [67Ga]Ga(NOTA): 67Ga-radiolabeled
Description: 4.1 Radiolabeling with 68Ga and Cleavage Assay in HEPES buffer
68Ga-chloride was obtained from the University of Wisconsin Radiopharmaceutical Production Facility, at
an average specific activity of 20 mCi/mL. For radio-labeling of model tripeptides and Ahx-KuE peptide
conjugates, a 35 μL aliquot containing 0.7 mCi of 68GaCl3 was added to the ligand (10 nmol, 265 µL) in
0.067 M of sodium acetate (NaOAc) buffer pH 4.5. Radiolabeling was completed after 15 minutes at
room temperature. The pH of the solution was then adjusted to 7.4 by pH 7.4 1 M HEPES buffer.
radiolabeled conjugates were further characterized with radio-HPLC; if the radiochemical yield was
<98%, a chromatographic purification of the crude radiolabeling mixture was performed. The cleavage of
the radiolabeled conjugates was monitored via radio-HPLC at 80 °C and pH 7.4.
67Ga-citrate was purchased from Jubilant Radiopharma at an average specific activity of 140.0 MBq/mL.
The 67Ga-citrate solution was first converted to 67GaCl using an established solid phase extraction
protocol. The resulting converted 67GaCl3 fraction with the specific activity of 962 MBq/mL was used for
radiolabeling. For radio-labeling of model tripeptides and Ahx-KuE peptide conjugates, a 25 μL aliquot
containing 0.45 mCi of 67GaCl3 was added to the ligand (10 nmol, 110 µL) in 0.15 M of sodium acetate
(NaOAc) buffer pH 4.5. Radiolabeling was completed after 10 minutes at room temperature. The pH of
the solution was then adjusted to 7.4 by adding pH 7.4 1 M HEPES buffer (final concentration: 0.25 M).
The radiolabeled conjugates were further characterized with radio-HPLC; if the radiochemical yield was
the radiolabeled conjugates was monitored via radio-HPLC at 37 °C and 80 °C at pH 7.4.
For radio-labeling of model tripeptides and Ahx-KuE peptide conjugates, a 25 μL aliquot containing 0.3
mCi of 67GaCl3 was added to the ligand (10 nmol, 110 µL) in 0.15 M of sodium acetate (NaOAc) buffer
pH 4.5. Radiolabeling was completed after 10 minutes at room temperature. The radiolabeled complexes
were further characterized by radio-HPLC. The pH of the solution was then adjusted to 7.4 by adding pH
7.4 1M HEPES buffer. Into the buffered mixture was added equal volume of mouse plasma (buffered
radiolabeled complex : mouse plasma 1:1). The cleavage of the radiolabeled conjugates was monitored
via radio-HPLC at 37 °C. At each time point, an aliquot of 20 – 40 µL sample was removed from the
tube. Plasma protein was precipitated by adding 20 – 40 µL of cold acetonitrile. After centrifugation at
4000 rpm for 10 minutes, the supernatant was collected and diluted in 40 – 70 µL H2O for radio-HPLC

[5] = cleavage assays in H2O and D2O for kinetic isotopic effect; type: physicochemical; details: Ga complex 0.75 mM, pH 7.4 HEPES, 80 °C
Description: Therefore, we conducted additional Kinetic isotopic effect (KIE) measurements for Met (15) and ^NMeMet (18) conjugates, which were chosen to avoid alternative reaction mechanisms. Our experiments determined KIE values (1.46 for Met, 2.81 for ^NMeMet) that imply a secondary KIE, where the proton transfer is not rate-limiting (Figures S262–S265). […] Reaction rates in phosphate buffered saline (PBS) were accelerated, motivating investigation of biologically relevant systems.
5.3 Cleavage assays in H2O and D2O for kinetic isotopic effect measurement Cold cleavage assays of [Ga(15)]+ were conducted in H2O and D2O to investigate the kinetic isotopic effects. In an Eppendorf tube, Ga complexes (0.75 mM) were initially prepared in H2O according to general complexation protocol Section 3.1. The solvent was lyophilized, and the complexes were redissolved in D2O. To minimize residual H2O, the D2O was lyophilized and redissolved three times. The Ga complexes were then redissolved in D2O to a final concentration of 0.75 mM. The solution was buffered to pH 7.4 by adding pH 7.4 HEPES buffer. Cleavage reactions were performed at 80 °C and monitored by analytical HPLC.
Figure S262. Schematic description of preparation and direct complexation procedure of [natGa(15)]+.
Analytical HPLC chromatograms showing autolytic release of the product, natGa-NOTA, in H2O. The kinetics data was fit using Yt = -kt+Y0 in Excel, where Yt represents the ln([concentration of intact species]) in mM, k represents the pseudo first-order reaction rate in hour-1, t represents the incubation time in hour, and Y0 presents the ln([initial concentration of intact species]) in mM.
(1 picture or pasted object on this page, not shown here)
Cold cleavage assays of [Ga(19)]+ were conducted in H2O and D2O to investigate the kinetic isotopic […]
Figure S264. Schematic description of preparation and direct complexation procedure of [natGa(19)]+.

cleavage after 6 h ([1]; natGa complex, pH 7.4, 80 °C): 50%
Substance: 68Gallium 2,2'-(7-(2-(((2R,3S)-1-((2-(((S)-1-amino-3-(1H-indol-3-yl)-1-oxopropan-2-yl)amino)-2-oxoethyl)amino)-3-hydroxy-1-oxobutan-2-yl)amino)-2-oxoethyl)-1,4,7-triazonane-1,4-diyl)diacetate [[Ga(14)]+]

half-life of model tripeptide [2]: 6.12 h | cleaved after 1 h ([1]; natGa complex, pH 7.4, 80 °C, after 1 h): 100% | half-life of model tripeptide [3]: 0.22 h | half-life of model tripeptide [4]: 3.65 h
Substance: 68Gallium 2,2'-(7-(2-(((R)-1-((2-(((S)-1-amino-3-(1H-indol-3-yl)-1-oxopropan-2-yl)amino)-2-oxoethyl)amino)-3-hydroxy-1-oxopropan-2-yl)(methyl)amino)-2-oxoethyl)-1,4,7-triazonane-1,4-diyl)diacetate [[Ga(16)]+]

half-life of model tripeptide [2]: 182 h | half-life of model tripeptide [3]: 5.20 h | half-life of model tripeptide [4]: 365 h
Substance: 68Gallium 2,2'-(7-(2-(((R)-1-((2-(((S)-1-amino-3-(1H-indol-3-yl)-1-oxopropan-2-yl)amino)-2-oxoethyl)amino)-3-hydroxy-1-oxopropan-2-yl)amino)-2-oxoethyl)-1,4,7-triazonane-1,4-diyl)diacetate [[Ga(13)]+]

half-life of model tripeptide [2]: 151 h | half-life of model tripeptide [3]: 0.92 h | half-life of model tripeptide [4]: 28.1 h
Substance: 68Gallium 2,2'-(7-(2-(((R)-1-((2-(((S)-1-amino-3-(1H-indol-3-yl)-1-oxopropan-2-yl)amino)-2-oxoethyl)amino)-4-(methylthio)-1-oxobutan-2-yl)(methyl)amino)-2-oxoethyl)-1,4,7-triazonane-1,4-diyl)diacetate [[Ga(18)]+]
krel (relative rate enhancement versus 25 mM pH 7.4 HEPES) ([1]; 25 mM HEPES, pH 7.4, 80 °C): 1 | krel (relative rate enhancement versus 25 mM pH 7.4 HEPES) ([1]; 25 mM PBS, pH 7.4, 80 °C): 4.4 | krel (relative rate enhancement versus 25 mM pH 7.4 HEPES) ([1]; 25 mM PIPES, pH 7.4, 80 °C): 1.13 | krel (relative rate enhancement versus 25 mM pH 7.4 HEPES) ([1]; 250 mM HEPES, pH 7.4, 80 °C): 2.44 | kobs ([1]; 25 mM HEPES, pH 7.4, 80 °C): 0.45 h⁻¹ | kobs ([1]; 25 mM PBS, pH 7.4, 80 °C): 1.98 h⁻¹ | kobs ([1]; 25 mM PIPES, pH 7.4, 80 °C): 0.51 h⁻¹ | kobs ([1]; 250 mM HEPES, pH 7.4, 80 °C): 1.10 h⁻¹ | pseudo first-order reaction rate in D2O ([5]; D2O): 0.16 h⁻¹ | pseudo first-order reaction rate in H2O ([5]; H2O): 0.45 h⁻¹ | KIE (kinetic isotopic effect) ([5]; H2O vs D2O): 2.81

The next lines start with the substance.

Substance: 68Gallium 2,2'-(7-(2-(((R)-1-((2-(((S)-1-amino-3-(1H-indol-3-yl)-1-oxopropan-2-yl)amino)-2-oxoethyl)amino)-1-oxopropan-2-yl)amino)-2-oxoethyl)-1,4,7-triazonane-1,4-diyl)diacetate [[Ga(12)]+]
cleavage after 6 h ([1]; natGa complex, pH 7.4, 80 °C): 20%

Substance: 68Gallium (R)-2,2'-(7-(2-((2-((2-((1-amino-3-(1H-indol-3-yl)-1-oxopropan-2-yl)amino)-2-oxoethyl)amino)-2-oxoethyl)amino)-2-oxoethyl)-1,4,7-triazonane-1,4-diyl)diacetate [[Ga(10)]+]
half-life of model tripeptide [2]: not observed | hydrolysis of the Ga complex ([1]; pH 4.5, 80 °C): hydrolyzed | hydrolysis of the Ga complex ([1]; pH > 5, 80 °C): inert | half-life of model tripeptide [3]: not obser ved | autolytic release of [67Ga]Ga(NOTA) ([4]; 37 °C and pH 7.4): no significant autolytic release | autolytic release of [67Ga]Ga(NOTA) ([4]; 80 °C and pH 7.4): no significant autolytic release | half-life of model tripeptide [4]: not observed
